Test: In vitro skin penetration, full thickness pig ear skin, Franz-type diffusion cells, 3H-BMV
Format: in vitro ADME
Description: To investigate the skin penetration and permeation of BMV from compositions according to example 1, a skin diffusion experiment was conducted. Full thickness skin from pig ears was used in the study. The skin was cleaned and kept frozen at −18° C. before use. On the day prior to the experiment the skin was placed in a refrigerator (5±3° C.) for slow defrosting.
Static Franz-type diffusion cells with an available diffusion area of 3.14 cm^2 and receptor volumes ranging from 8.6 to 11.1 ml were used in substantially the manner described by T. J. Franz, “The finite dose technique as a valid in vitro model for the study of percutaneous absorption in man”, in Current Problems in Dermatology, 1978, J. W. H. Mall (Ed.), Karger, Basel, pp. 58-68. The specific volume was measured and registered for each cell. A magnetic bar was placed in the receptor compartment of each cell. After mounting the skin, physiological saline (35° C.) was filled into each receptor chamber for hydration of the skin. The cells were placed in a thermally controlled water bath which was placed on a magnetic stirrer set at 300 rpm. […]
Samples (1 ml) of the receptor fluid remaining in the diffusion cell were collected and analysed.
The concentration of ^3H-BMV in the samples were determined by liquid scintillation counting.

permeation of BMV into the receptor medium (receptor medium acetate buffer pH 5.5 with 1% methyl-β-cyclodextrin): None
Structure (SMILES): CCCCC(=O)O[C@]1(C(=O)CO)[C@@H](C)C[C@H]2[C@@H]3CCC4=CC(=O)C=C[C@]4(C)[C@@]3(F)[C@@H](O)C[C@@]21C [BMV, betamethasone valerate]
accumulation of BMV in skin layers (stratum corneum versus epidermis, FIG. 3): mainly accumulated in the stratum corneum

Reference: patent publication US20160206629A1, “TOPICAL COMPOSITION COMPRISING A FILM-FORMING POLYMER FOR DELIVERING AN ACTIVE INGREDIENT TO SKIN” (LEO Pharma A/S, priority 2012, published 2016)
